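Growth conditions: 96-well plates. Treatment: test compound, 48 hours, 5 concentrations. Analysis: linear interpolation between bracketing concentrations; unreached endpoints set to highest concentration. GI50 = concentration required for 50% inhibition of growth.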 Active and inactive are the calls of the source. No stated cut-off is given here; in the data, active = GI50 up to about 1.1 µM and inactive = higher.
Key:
Assay in all cases: NCI anticancer screen, dose series, 48 h
CCRF-CEM = tested on: CCRF-CEM
COLO 205 = tested on: COLO 205
HCC 2998 = tested on: HCC 2998
HCT-15 = tested on: HCT-15
HL-60 = tested on: HL-60
HOP-92 = tested on: HOP-92
Hs-578T = tested on: Hs-578T
IGROV-1 = tested on: IGROV-1
LOX IMVI = tested on: LOX IMVI
MDA-MB-435 = tested on: MDA-MB-435
NCI-H23 = tested on: NCI-H23
NCI/ADR-RES = tested on: NCI/ADR-RES
OVCAR-3 = tested on: OVCAR-3
OVCAR-4 = tested on: OVCAR-4
SF-295 = tested on: SF-295
SK-MEL-28 = tested on: SK-MEL-28
SK-MEL-2 = tested on: SK-MEL-2
SR = tested on: SR
UACC-62 = tested on: UACC-62
MDA-N = tested on: MDA-N

Structure (SMILES) | GI50 (CCRF-CEM) | GI50 (COLO 205) | GI50 (HCC 2998) | GI50 (HCT-15) [µM] | GI50 (HL-60) | GI50 (HOP-92) | GI50 (Hs-578T) | GI50 (IGROV-1) | GI50 (LOX IMVI) | GI50 (MDA-MB-435) | GI50 (NCI-H23) | GI50 (NCI/ADR-RES) | GI50 (OVCAR-3) | GI50 (OVCAR-4) | GI50 (SF-295) | GI50 (SK-MEL-28) | GI50 (SK-MEL-2) | GI50 (SR) | GI50 (UACC-62) | GI50 (MDA-N)
Cc1noc(NC(=O)Nc2ccccc2F)c1C#N | 70.6 µM (inactive) | > 100 µM (inactive) | 2.12 µM (inactive) | 55.3 | 84.5 µM (inactive) | > 100 µM (inactive) | > 34.4 µM (inactive) | > 91.6 µM (inactive) | 58.5 µM (inactive) | > 100 µM (inactive) | > 81.3 µM (inactive) | > 100 µM (inactive) | 64.3 µM (inactive) | 69.8 µM (inactive) | 41.5 µM (inactive) | > 100 µM (inactive) | > 39.8 µM (inactive) | 21.4 µM (inactive) | > 27.4 µM (inactive) | –
Nn1c(CCCCCCCCc2nnc(COc3c(O)ccc4ccccc34)n2N)nnc1COc1c(O)ccc2ccccc12 | – | > 100 µM (inactive) | > 100 µM (inactive) | > 100 | – | > 100 µM (inactive) | – | > 100 µM (inactive) | – | > 100 µM (inactive) | > 100 µM (inactive) | > 100 µM (inactive) | – | 59.6 µM (inactive) | > 100 µM (inactive) | > 100 µM (inactive) | > 100 µM (inactive) | – | > 100 µM (inactive) | > 100 µM (inactive)
O=C1/C(=C/c2ccco2)N=C(c2ccccc2)N1c1ccc(S(=O)(=O)Nc2nccs2)cc1 | 75.7 µM (inactive) | > 100 µM (inactive) | > 100 µM (inactive) | 28.9 | 89.9 µM (inactive) | 73.8 µM (inactive) | – | > 100 µM (inactive) | > 100 µM (inactive) | > 100 µM (inactive) | > 100 µM (inactive) | > 100 µM (inactive) | 83.9 µM (inactive) | 69.2 µM (inactive) | > 100 µM (inactive) | – | > 100 µM (inactive) | > 100 µM (inactive) | 93.5 µM (inactive) | > 100 µM (inactive)
CCOC(=O)C(CCSC)(CCSC)C(=O)OCC | > 100 µM (inactive) | > 100 µM (inactive) | > 100 µM (inactive) | > 100 | – | – | > 100 µM (inactive) | > 100 µM (inactive) | > 100 µM (inactive) | > 100 µM (inactive) | > 100 µM (inactive) | > 100 µM (inactive) | > 100 µM (inactive) | > 100 µM (inactive) | > 100 µM (inactive) | > 100 µM (inactive) | > 100 µM (inactive) | – | 18.7 µM (inactive) | > 100 µM (inactive)
Clc1ccc2nc3[nH]nc(Cl)c3nc2c1 | – | 52.5 µM (inactive) | 38.4 µM (inactive) | > 100 | – | – | 22.7 µM (inactive) | – | – | 77.8 µM (inactive) | 48.1 µM (inactive) | 56.2 µM (inactive) | 66.8 µM (inactive) | 63.2 µM (inactive) | 72.6 µM (inactive) | 84.7 µM (inactive) | 40.6 µM (inactive) | – | 45.3 µM (inactive) | 76.9 µM (inactive)
COc1ccc(C(CC(=O)c2ccccc2)C(=O)c2ccc3c(c2)OCO3)cc1 (stereo not drawn) | > 100 µM (inactive) | > 100 µM (inactive) | > 100 µM (inactive) | > 100 | > 100 µM (inactive) | – | – | > 100 µM (inactive) | – | > 100 µM (inactive) | > 100 µM (inactive) | > 100 µM (inactive) | – | > 10 µM (inactive) | > 100 µM (inactive) | > 100 µM (inactive) | > 100 µM (inactive) | > 100 µM (inactive) | > 100 µM (inactive) | > 100 µM (inactive)
CC(=O)NC1C(OCC(=O)NCCNc2ccc([N+](=O)[O-])c3[nH]c4ccccc4c(=O)c23)C(O)C(CO)OC1(C)OCc1ccccc1 (stereo not drawn) | > 100 µM (inactive) | > 100 µM (inactive) | > 100 µM (inactive) | > 100 | – | – | > 100 µM (inactive) | > 100 µM (inactive) | > 100 µM (inactive) | > 100 µM (inactive) | > 100 µM (inactive) | > 100 µM (inactive) | > 100 µM (inactive) | > 100 µM (inactive) | > 100 µM (inactive) | – | > 100 µM (inactive) | – | > 100 µM (inactive) | > 100 µM (inactive)
CC(C)Oc1cccc(N2C(NCCc3c[nH]c4ccccc34)=Nc3ccncc3S2(=O)=O)c1 | 6.15 µM (inactive) | 1.79 µM (inactive) | 24.4 µM (inactive) | 4.98 | 3.93 µM (inactive) | 8.45 µM (inactive) | 3.9 µM (inactive) | 41.7 µM (inactive) | 52.1 µM (inactive) | 25.8 µM (inactive) | 33.1 µM (inactive) | 29.9 µM (inactive) | 11.7 µM (inactive) | 8 µM (inactive) | 20.7 µM (inactive) | 8.43 µM (inactive) | 20.8 µM (inactive) | 3.26 µM (inactive) | 31 µM (inactive) | –

Source: ChEMBL document CHEMBL1201862, “PubChem BioAssay data set” (2004)
